Tests used:
JAK2 = target: T1, JAK2 (Homo sapiens, UniProt O60674); assay: Biochemical JAK2 kinase assay (LanthaScreen); details: for Ki: read-out: JAK 2 (pKi) (converted)
T1 construct: GST; purchased Life Technologies
Method in brief: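 pKi values derive from pIC50 via Cheng-Prusoff, with IC50 from a 4-parameter fit of percent-inhibition TR-FRET data using Tb-anti-pSTAT1 (pTyr701) detection. Compound, GST-JAK2 and GFP-STAT1 substrate were pre-incubated 1 h, then ATP started a 1 h ambient reaction (HEPES pH 7.5, 10 mM MgCl2, 1% DMSO).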

[1] = system: IL-2 stimulated pSTAT5 in Tall-1 T cells; assay: Cellular JAK3 potency assay: inhibition of IL-2 stimulated pSTAT5 in Tall-1 T cells; assay type: cell-based, human; details: for IC50: Homo sapiens, TALL-1, IL-2 stimulated pSTAT5, Tall-1 T cells, read-out: Tall-1 (pIC50) (converted)
Method in brief: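 Tall-1 human T cells were preincubated with compound for 1 h at 37° C, then stimulated with IL-2 (300 ng/ml final) for 30 min. STAT5 phosphorylation in lysates was read by AlphaLisa bead emission, and IC50 from inhibition curves is given as pIC50 (mean±SD).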

Tyk2 = target: T2, Tyk2 (Homo sapiens, UniProt P29597); assay: Biochemical Tyk2 kinase assay (LanthaScreen); details: for Ki: read-out: Tyk 2 (pKi) (converted)
T2 construct: GST; purchased Life Technologies
Method in brief: (§1)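 GST-tagged JAK enzyme and GFP-STAT1 peptide preincubated with compound 1 h, then ATP added; 1 h kinase reaction at ambient temperature, pH 7.5 HEPES/MgCl2 buffer, 1% DMSO. Tb-anti-pSTAT1 (pTyr701) TR-FRET, 520/495 nm ratio; IC50 from 4-parameter fit, converted to pKi via Cheng-Prusoff.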

JAK3 = target: T3, JAK3 (Homo sapiens, UniProt P52333); assay: Biochemical JAK3 kinase assay (LanthaScreen); set-up: GST; purchased Life Technologies; details: for Ki: read-out: JAK 3 (pKi) (converted); for JAK3 (pKi)-JAK1 (pKi): selectivity JAK3 over JAK1, difference of pKi
T3 sequence (P52333 1-1124): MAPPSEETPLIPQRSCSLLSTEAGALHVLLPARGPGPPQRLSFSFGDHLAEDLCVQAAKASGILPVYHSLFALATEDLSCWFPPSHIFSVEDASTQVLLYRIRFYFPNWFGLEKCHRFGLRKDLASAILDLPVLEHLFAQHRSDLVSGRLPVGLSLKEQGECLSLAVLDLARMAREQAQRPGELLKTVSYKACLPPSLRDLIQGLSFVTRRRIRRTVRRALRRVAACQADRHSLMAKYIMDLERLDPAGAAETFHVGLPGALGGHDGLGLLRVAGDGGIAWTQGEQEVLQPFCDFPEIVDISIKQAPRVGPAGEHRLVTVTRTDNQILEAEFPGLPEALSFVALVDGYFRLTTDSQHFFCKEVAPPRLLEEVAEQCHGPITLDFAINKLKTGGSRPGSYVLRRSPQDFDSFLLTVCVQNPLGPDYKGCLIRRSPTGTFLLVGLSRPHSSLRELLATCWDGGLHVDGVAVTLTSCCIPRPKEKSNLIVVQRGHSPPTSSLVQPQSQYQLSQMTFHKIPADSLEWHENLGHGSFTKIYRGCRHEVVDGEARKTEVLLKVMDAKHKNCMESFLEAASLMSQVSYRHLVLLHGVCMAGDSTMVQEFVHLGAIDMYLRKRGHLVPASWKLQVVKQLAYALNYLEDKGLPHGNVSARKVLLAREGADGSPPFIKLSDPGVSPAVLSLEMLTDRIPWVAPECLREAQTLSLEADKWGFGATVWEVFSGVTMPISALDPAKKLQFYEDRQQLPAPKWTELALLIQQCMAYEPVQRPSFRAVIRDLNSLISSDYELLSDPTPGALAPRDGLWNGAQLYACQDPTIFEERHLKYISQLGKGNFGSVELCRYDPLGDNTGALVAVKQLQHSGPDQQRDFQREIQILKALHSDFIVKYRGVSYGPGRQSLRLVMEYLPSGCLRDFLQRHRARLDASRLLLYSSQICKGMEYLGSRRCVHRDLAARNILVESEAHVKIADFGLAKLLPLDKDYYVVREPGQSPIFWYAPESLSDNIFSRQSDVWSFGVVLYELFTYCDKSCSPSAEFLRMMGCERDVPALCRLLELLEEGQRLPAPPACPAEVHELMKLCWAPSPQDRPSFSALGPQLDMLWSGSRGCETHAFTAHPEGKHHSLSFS
Method in brief: as §1

JAK1 = target: T4, JAK1 (Homo sapiens, UniProt P23458); assay: Biochemical JAK1 kinase assay (LanthaScreen); details: for Ki: read-out: JAK 1 (pKi) (converted)
T4 construct: GST; purchased Life Technologies
Method in brief: as §1

T1 sequence (O60674 whole entry): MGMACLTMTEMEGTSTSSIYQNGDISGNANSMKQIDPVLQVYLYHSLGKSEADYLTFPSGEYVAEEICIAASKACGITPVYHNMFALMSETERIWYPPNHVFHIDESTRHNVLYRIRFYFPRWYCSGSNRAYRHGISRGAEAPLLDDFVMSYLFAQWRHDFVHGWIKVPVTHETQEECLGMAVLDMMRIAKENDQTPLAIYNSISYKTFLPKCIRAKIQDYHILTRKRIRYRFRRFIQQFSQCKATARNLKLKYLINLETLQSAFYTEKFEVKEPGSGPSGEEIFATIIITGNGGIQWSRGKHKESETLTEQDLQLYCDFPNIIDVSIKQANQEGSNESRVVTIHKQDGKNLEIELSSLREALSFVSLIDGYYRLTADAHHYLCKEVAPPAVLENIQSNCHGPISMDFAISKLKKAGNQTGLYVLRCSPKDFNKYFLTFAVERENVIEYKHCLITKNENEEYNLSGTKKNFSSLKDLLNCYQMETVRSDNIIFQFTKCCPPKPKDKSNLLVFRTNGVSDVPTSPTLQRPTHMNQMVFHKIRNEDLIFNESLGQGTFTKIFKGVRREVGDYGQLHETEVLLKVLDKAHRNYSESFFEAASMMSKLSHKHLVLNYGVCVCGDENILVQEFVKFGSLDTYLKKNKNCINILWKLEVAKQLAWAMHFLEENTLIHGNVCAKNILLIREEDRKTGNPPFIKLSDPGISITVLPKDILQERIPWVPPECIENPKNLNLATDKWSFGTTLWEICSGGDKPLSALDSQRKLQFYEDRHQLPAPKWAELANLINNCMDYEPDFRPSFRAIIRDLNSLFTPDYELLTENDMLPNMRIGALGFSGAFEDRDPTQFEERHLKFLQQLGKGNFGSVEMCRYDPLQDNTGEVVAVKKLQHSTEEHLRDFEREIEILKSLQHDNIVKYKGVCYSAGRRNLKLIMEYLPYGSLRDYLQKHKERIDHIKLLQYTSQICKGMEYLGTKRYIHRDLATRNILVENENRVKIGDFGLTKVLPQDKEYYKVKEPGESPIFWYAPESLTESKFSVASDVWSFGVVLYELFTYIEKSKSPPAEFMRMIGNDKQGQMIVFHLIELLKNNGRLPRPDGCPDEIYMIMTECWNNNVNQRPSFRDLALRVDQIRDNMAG
T4 sequence (P23458 whole entry): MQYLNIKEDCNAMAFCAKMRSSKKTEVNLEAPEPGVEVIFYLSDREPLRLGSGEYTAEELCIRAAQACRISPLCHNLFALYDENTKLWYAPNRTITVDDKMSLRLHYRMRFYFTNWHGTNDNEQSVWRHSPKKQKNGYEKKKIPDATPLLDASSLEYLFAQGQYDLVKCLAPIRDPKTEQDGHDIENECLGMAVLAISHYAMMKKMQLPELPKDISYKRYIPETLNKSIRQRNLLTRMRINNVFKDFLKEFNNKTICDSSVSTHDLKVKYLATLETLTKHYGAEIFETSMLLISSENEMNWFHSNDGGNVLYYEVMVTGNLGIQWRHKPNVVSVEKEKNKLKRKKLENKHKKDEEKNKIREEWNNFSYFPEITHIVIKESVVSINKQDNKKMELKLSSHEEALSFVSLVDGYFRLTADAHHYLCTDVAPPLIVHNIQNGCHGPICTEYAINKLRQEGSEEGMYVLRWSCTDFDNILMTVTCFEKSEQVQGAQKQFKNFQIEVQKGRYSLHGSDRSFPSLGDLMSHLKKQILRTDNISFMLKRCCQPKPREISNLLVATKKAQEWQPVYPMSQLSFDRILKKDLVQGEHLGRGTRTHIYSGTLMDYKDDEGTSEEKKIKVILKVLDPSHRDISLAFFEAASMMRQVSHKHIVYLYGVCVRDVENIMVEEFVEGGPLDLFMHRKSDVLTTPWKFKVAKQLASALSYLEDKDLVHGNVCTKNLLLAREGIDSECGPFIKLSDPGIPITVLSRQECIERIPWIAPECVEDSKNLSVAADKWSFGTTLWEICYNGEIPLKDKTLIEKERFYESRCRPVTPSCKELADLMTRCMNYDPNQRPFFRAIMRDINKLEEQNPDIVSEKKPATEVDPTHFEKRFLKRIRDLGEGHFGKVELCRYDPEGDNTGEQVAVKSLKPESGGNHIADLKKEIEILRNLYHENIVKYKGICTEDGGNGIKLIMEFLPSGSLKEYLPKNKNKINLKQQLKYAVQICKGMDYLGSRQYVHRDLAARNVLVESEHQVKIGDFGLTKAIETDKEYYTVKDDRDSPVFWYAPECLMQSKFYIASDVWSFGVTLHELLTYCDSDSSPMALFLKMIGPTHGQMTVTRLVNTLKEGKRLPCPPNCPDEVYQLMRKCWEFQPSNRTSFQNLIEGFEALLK
T2 sequence (P29597 whole entry): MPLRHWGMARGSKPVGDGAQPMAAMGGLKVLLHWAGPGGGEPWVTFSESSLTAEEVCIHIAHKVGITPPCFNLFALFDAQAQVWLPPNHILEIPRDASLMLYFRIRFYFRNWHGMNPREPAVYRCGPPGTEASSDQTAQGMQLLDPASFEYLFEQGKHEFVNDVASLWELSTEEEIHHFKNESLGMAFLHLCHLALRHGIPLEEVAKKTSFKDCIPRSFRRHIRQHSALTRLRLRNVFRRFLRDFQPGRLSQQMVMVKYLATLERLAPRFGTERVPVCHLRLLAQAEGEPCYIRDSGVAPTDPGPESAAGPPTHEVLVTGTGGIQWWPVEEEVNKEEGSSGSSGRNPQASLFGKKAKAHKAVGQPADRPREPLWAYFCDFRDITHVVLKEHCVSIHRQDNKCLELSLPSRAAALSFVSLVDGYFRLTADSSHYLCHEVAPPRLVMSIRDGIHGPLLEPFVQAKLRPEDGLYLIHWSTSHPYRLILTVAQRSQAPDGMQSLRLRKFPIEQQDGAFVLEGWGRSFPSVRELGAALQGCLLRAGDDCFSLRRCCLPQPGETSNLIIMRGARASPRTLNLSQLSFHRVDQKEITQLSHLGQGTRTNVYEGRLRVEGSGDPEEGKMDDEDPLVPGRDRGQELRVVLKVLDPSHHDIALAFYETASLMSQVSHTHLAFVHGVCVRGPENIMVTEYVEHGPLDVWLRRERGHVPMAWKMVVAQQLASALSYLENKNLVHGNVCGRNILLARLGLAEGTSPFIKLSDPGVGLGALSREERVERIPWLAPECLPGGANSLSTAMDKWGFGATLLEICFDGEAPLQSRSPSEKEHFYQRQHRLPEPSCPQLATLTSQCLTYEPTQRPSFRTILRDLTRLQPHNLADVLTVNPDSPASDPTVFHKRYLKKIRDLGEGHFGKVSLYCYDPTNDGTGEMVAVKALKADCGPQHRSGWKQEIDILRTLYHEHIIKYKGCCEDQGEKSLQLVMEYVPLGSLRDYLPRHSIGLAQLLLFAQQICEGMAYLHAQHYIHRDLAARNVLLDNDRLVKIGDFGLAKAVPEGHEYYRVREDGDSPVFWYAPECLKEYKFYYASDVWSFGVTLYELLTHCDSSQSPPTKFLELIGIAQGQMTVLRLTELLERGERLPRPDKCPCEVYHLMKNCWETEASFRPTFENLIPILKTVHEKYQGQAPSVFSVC

Compound	Ki (JAK2) [nM]	IC50 [1] [nM]	Ki (Tyk2) [nM]	Ki (JAK3) [nM]	JAK3 (pKi)-JAK1 (pKi) (JAK3)	Ki (JAK1) [nM]	JAK 2 (pKi) (JAK2)	Tall-1 (pIC50) ([1]; IL-2 stimulated pSTAT5, Tall-1 T cells)	Tyk 2 (pKi) (Tyk2)	JAK 1 (pKi) (JAK1)
CN(C)C/C=C/C(=O)N1CCC(COc2cc(-c3ccc(O)cc3)cc3[nH]ncc23)CC1 [Compound 12-26]	10 to 100	200 to 1000	> 100	0.1 to 1	B (a value of 2.3 to 3)	> 100				
C=CC(=O)N1CCC(COc2cc(-c3ccc(O)cc3)cc3[nH]ncc23)CC1 [Compound 12-27]	10 to 100	< 31.6	> 100	< 0.1	A (a value of 3 or above)	> 100				
C[C@@H]1C[C@H](Oc2cc(-c3ccc(O)cc3)cc3[nH]ncc23)CCN1C(=O)/C=C/CN(C)C [Compound 12-28]	1 to 10	31.6 to 200	> 100	< 0.1	A (a value of 3 or above)	> 100				
C=CC(=O)N1CC[C@@H](Oc2cc(-c3ccc(O)cc3)cc3[nH]ncc23)C[C@H]1C [Compound 12-29]	10 to 100	< 31.6	> 100	0.1 to 1	A (a value of 3 or above)	> 100				
C=CC(=O)N1CC[C@@H](Oc2cc(-c3ccc(O)cc3)cc3[nH]ncc23)C[C@@H]1C [Compound 12-30]	1 to 10	< 31.6	> 100	< 0.1	A (a value of 3 or above)	> 100				
C=CC(=O)N1CC[C@H](Oc2cc(-c3ccc(O)cc3)cc3[nH]ncc23)C[C@@H]1C [Compound 12-31]	1 to 10	31.6 to 200	> 100	< 0.1	A (a value of 3 or above)	> 100				
C=CC(=O)N1CC[C@H](Oc2cc(-c3ccc(O)cc3)cc3[nH]ncc23)C[C@H]1C [Compound 12-32]	10 to 100	< 31.6	> 100	< 0.1	A (a value of 3 or above)	> 100				
C=CC(=O)N1C[C@@H](Oc2cc(-c3ccc(O)cc3)cc3[nH]ncc23)CC[C@@H]1C [Compound 12-33]	> 100	31.6 to 200	> 100	0.1 to 1	A (a value of 3 or above)	> 100				
C=CC(=O)N1CC(CSc2cc(-c3ccc(O)cc3)cc3[nH]ncc23)C1 [Compound 12-34]	> 100	< 31.6	> 100	0.1 to 1	B (a value of 2.3 to 3)	> 100				
C=CC(=O)N1CC(Sc2cc(-c3ccc(O)cc3)cc3[nH]ncc23)C1 [Compound 12-35]	> 100	31.6 to 200	> 100	0.1 to 1	B (a value of 2.3 to 3)	> 100				
CN(C)C/C=C/C(=O)N1CC(F)(C2(Oc3cc(-c4ccc(O)cc4)cc4[nH]ncc34)CC2)C1 [Compound 12-36]	> 100	< 31.6	> 100	< 0.1	A (a value of 3 or above)	10 to 100				
CN(C)C/C=C/C(=O)N1CC(OCc2cc(-c3ccc(O)cc3)cc3[nH]ncc23)C1 [Compound 12-38]	> 100	31.6 to 200	> 100	< 0.1	A (a value of 3 or above)	> 100				
C=CC(=O)N1CC(OCc2cc(-c3ccc(O)cc3)cc3[nH]ncc23)C1 [Compound 12-39]	> 100	< 31.6	> 100	0.1 to 1	A (a value of 3 or above)	> 100				
C=CC(=O)N1CCC(C#N)(C(=O)Nc2cc(-c3ccc(O)cc3)cc3[nH]ncc23)CC1 [Compound 12-41]	> 100	< 31.6	> 100	0.1 to 1	A (a value of 3 or above)	> 100				
C=CC(=O)N1CCSC(C(=O)Nc2cc(-c3ccc(O)cc3)cc3[nH]ncc23)C1 (stereo not drawn) [Compound 12-42]	10 to 100	31.6 to 200	> 100	0.1 to 1	B (a value of 2.3 to 3)	> 100				
C=CC(=O)N1CCSC(C(=O)Nc2cc(-c3ccc(O)cc3)cc3[nH]ncc23)C1 (stereo not drawn) [Compound 12-43]				< 0.1	A (a value of 3 or above)		D (a pKi value between 7 and 8 (Ki between 100 nM and 10 nM))	A (a pIC50 value≥7.5 (IC50≤32 nM))	E (a pKi value of 7 or below (Ki of 100 nM or above))	E (a pKi value of 7 or below (Ki of 100 nM or above))
C=CC(=O)N1CCS[C@@H](C(=O)Nc2cc(-c3ccc(O)cc3)cc3[nH]ncc23)C1 [Compound 12-44]	10 to 100	31.6 to 200	> 100	< 0.1	A (a value of 3 or above)	> 100				
C=CC(=O)N1CCS(=O)(=O)C(C(=O)Nc2cc(-c3ccc(O)cc3)cc3[nH]ncc23)C1 (stereo not drawn) [Compound 12-45]	> 100	200 to 1000	> 100	< 0.1	A (a value of 3 or above)	> 100				
C=CC(=O)N1CC(C(=O)Nc2cc(-c3ccc(O)cc3)cc3[nH]ncc23)C1 [Compound 12-46]	10 to 100	31.6 to 200	> 100	< 0.1	A (a value of 3 or above)	> 100				
C=CC(=O)N1CC(C#N)(C(=O)Nc2cc(-c3ccc(O)cc3)cc3[nH]ncc23)C1 [Compound 12-47]	> 100	31.6 to 200	> 100	0.1 to 1	A (a value of 3 or above)	> 100				
C=CC(=O)N1CC(F)(C(=O)Nc2cc(-c3ccc(O)cc3)cc3[nH]ncc23)C1 [Compound 12-48]	> 100	< 31.6	> 100	0.1 to 1	A (a value of 3 or above)	> 100				
CN(C)C/C=C/C(=O)N1CC(S(=O)(=O)c2cc(-c3ccc(O)cc3)cc3[nH]ncc23)C1 [Compound 12-49]	> 100	200 to 1000	> 100	0.1 to 1	A (a value of 3 or above)	> 100				
C=CC(=O)N1CC(S(=O)(=O)c2cc(-c3ccc(O)cc3)cc3[nH]ncc23)C1 [Compound 12-50]	> 100	31.6 to 200	> 100	< 0.1	A (a value of 3 or above)	> 100				

From patent US10392368B2, “Pyrazolo and triazolo bicyclic compounds as JAK kinase inhibitors” (THERAVANCE BIOPHARMA R&D IP, LLC, priority 2017, dated 2019)
